How the values were obtained:
Experiment in all cases: Bliss excess, mean over the matrix (fraction); higher = more synergy
[1] = test system: FADU (Head and Neck Carcinoma)
Procedure, shortened: (§1)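 Cell lines in DMEM/F12 or RPMI with 10% FBS were plated in 1536-well plates, held 24 hours at 37°C, 5% CO2, then given two-drug dose matrices for 72 hours (DMSO typically 0.2%). Viability was read by CellTiter-Glo 2.0 luminescence and scaled as inhibition from 0 (vehicle wells) to 1 (blank wells). Combination Emax is the second-highest inhibition in the matrix; Bliss excess is observed combination effect minus expected EA + EB − EA·EB, EA and EB being single-agent effects.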

GB-1 (Glioblastoma) = test system: GB-1 (Glioblastoma)
Procedure, shortened: as §1

[2] = test system: GP5d (Colorectal Carcinoma)
Procedure, shortened: as §1

[3] = test system: HCT-15 (Colorectal Carcinoma)
Procedure, shortened: as §1

[4] = test system: HSC-39 (Gastric Carcinoma)
Procedure, shortened: as §1

IST-MES1 (Mesothelioma) = test system: IST-MES1 (Mesothelioma)
Procedure, shortened: as §1

LN-229 (Glioblastoma) = test system: LN-229 (Glioblastoma)
Procedure, shortened: as §1

[5] = test system: MFE-280 (Endometrial Carcinoma)
Procedure, shortened: as §1

[6] = test system: MKN45 (Gastric Carcinoma)
Procedure, shortened: as §1

[7] = test system: NCI-H23 (Lung Adenocarcinoma)
Procedure, shortened: as §1

[8] = test system: NCI-H446 (Small Cell Lung Carcinoma)
Procedure, shortened: as §1

[9] = test system: PSN1 (Pancreatic Carcinoma)
Procedure, shortened: as §1

[10] = test system: REH (B-Lymphoblastic Leukemia)
Procedure, shortened: as §1

[11] = test system: RKN (Other Solid Carcinomas)
Procedure, shortened: as §1

SF268 (Low Grade Glioma) = test system: SF268 (Low Grade Glioma)
Procedure, shortened: as §1

SF539 (Glioblastoma) = test system: SF539 (Glioblastoma)
Procedure, shortened: as §1

[12] = test system: SK-PN-DW (Other Solid Carcinomas)
Procedure, shortened: as §1

[13] = test system: SU-DHL-10 (B-Cell Non-Hodgkin's Lymphoma)
Procedure, shortened: as §1

WM278 (Melanoma) = test system: WM278 (Melanoma)
Procedure, shortened: as §1

WM793B (Melanoma) = test system: WM793B (Melanoma)
Procedure, shortened: as §1

Compound | Bliss excess [1] | Bliss excess (GB-1 (Glioblastoma)) | Bliss excess [2] | Bliss excess [3] | Bliss excess [4] | Bliss excess (IST-MES1 (Mesothelioma)) | Bliss excess (LN-229 (Glioblastoma)) | Bliss excess [5] | Bliss excess [6] | Bliss excess [7] | Bliss excess [8] | Bliss excess [9] | Bliss excess [10] | Bliss excess [11] | Bliss excess (SF268 (Low Grade Glioma)) | Bliss excess (SF539 (Glioblastoma)) | Bliss excess [12] | Bliss excess [13] | Bliss excess (WM278 (Melanoma)) | Bliss excess (WM793B (Melanoma))
Cn1cnc2c(F)c(Nc3ccc(Br)cc3Cl)c(C(=O)NOCCO)cc21 [Selumetinib] + CC(C)n1c(=O)n(C)c2cnc3cc(F)c(-c4ccc(OCCCN5CCCCC5)nc4)cc3c21 [AZD1390] (first compound max 10 µM, 7x7, partner max 0.3 µM) | -0.004 | -0.0574 | 0.0142 | -0.0001 | 0.0253 | -0.0382 | -0.0563 | -0.0427 | -0.0388 | -0.0103 | -0.0469 | -0.0639 | -0.0323 | 0.0378 | -0.0693 | -0.0232 | -0.0289 | -0.0183 | -0.0352 | -0.0211
Cn1cnc2c(F)c(Nc3ccc(Br)cc3Cl)c(C(=O)NOCCO)cc21 [Selumetinib] + CCN(CCO)CCCOc1ccc2c(Nc3cc(CC(=O)Nc4cccc(F)c4)[nH]n3)ncnc2c1 [AZD2811] (first compound max 10 µM, 7x7, partner max 1 µM) | -0.026 | -0.0512 | -0.0153 | 0.0193 | -0.0355 | -0.0718 | -0.0303 | -0.0767 | 0.0107 | 0.0194 | -0.0069 | -0.0501 | -0.0464 | -0.0232 | -0.027 | -0.0193 | -0.0744 | -0.0915 | -0.0003 | -0.0465
CN(CCO)CC[C@H](CSc1ccccc1)Nc1ccc(S(=O)(=O)NC(=O)c2ccc(N3CCC([C@@H](O)c4ccccc4-c4ccc(Cl)cc4)CC3)cc2)cc1S(=O)(=O)C(F)(F)F [AZD4320] + C[C@@H]1COCCN1C2=NC(=NC(=C2)C3(CC3)[S@](=N)(=O)C)C4=C5C=CNC5=NC=C4 [AZD6738] (first compound max 1 µM, 7x7, partner max 10 µM) | -0.0165 | -0.0314 | -0.0515 | 0.0099 | -0.0108 | -0.0338 | 0.0358 | 0.0099 | -0.0471 | -0.0073 | 0.0178 | -0.0798 | 0.0532 | -0.03 | 0.023 | -0.0706 | -0.0551 | 0.0076 | -0.0404 | -0.0406
NC1(C(=O)N[C@@H](CCO)c2ccc(Cl)cc2)CCN(c2ncnc3[nH]ccc23)CC1 [Capivasertib] + C[C@@H]1COCCN1C2=NC(=NC(=C2)C3(CC3)[S@](=N)(=O)C)C4=C5C=CNC5=NC=C4 [AZD6738] (first compound max 10 µM, 7x7, partner max 10 µM) | 0.0096 | -0.054 | -0.103 | -0.0104 | -0.0181 | 0.0194 | -0.0405 | -0.0742 | -0.0553 | -0.0434 | -0.0166 | -0.0084 | -0.0859 | -0.124 | -0.0617 | -0.0125 | -0.0412 | -0.0359 | -0.0637 | -0.0919
CC(=O)c1c(C)c2cnc(Nc3ccc(N4CCNCC4)cn3)nc2n(C2CCCC2)c1=O [Palbociclib] + CC1(C)CCC(CN2CCN(c3ccc(C(=O)NS(=O)(=O)c4ccc(NCC5CCOCC5)c([N+](=O)[O-])c4)c(Oc4cnc5[nH]ccc5c4)c3)CC2)=C(c2ccc(Cl)cc2)C1 [Venetoclax] (first compound max 10 µM, 7x7, partner max 1 µM) | -0.0596 | -0.0448 | -0.011 | 0.0105 | -0.0476 | -0.0203 | -0.0652 | -0.068 | -0.0481 | -0.0199 | 0.0219 | -0.0149 | -0.0446 | -0.0841 | -0.0344 | -0.0164 | -0.0063 | -0.0873 | -0.0338 | 0.0241
COc1cc2c(cc1OCCCCCOc1cc3c(cc1OC)C(=O)N1C=C(C)C[C@H]1C=N3)N=C[C@@H]1CC(C)=CN1C2=O [SG3199] + O=C(c1cc(Cc2n[nH]c(=O)c3ccccc23)ccc1F)N1CCN(C(=O)C2CC2)CC1 [Olaparib] (first compound max 0.001 µM, 7x7, partner max 10 µM) | -0.0009 | -0.0328 | -0.0206 | 0.0701 | -0.0067 | -0.0402 | -0.0454 | -0.0092 | -0.0633 | 0.0008 | -0.0372 | -0.0371 | -0.0099 | -0.0377 | -0.0297 | -0.0049 | -0.0295 | -0.0177 | -0.0299 | -0.0198
NC1(C(=O)N[C@@H](CCO)c2ccc(Cl)cc2)CCN(c2ncnc3[nH]ccc23)CC1 [Capivasertib] + CC(=O)c1c(C)c2cnc(Nc3ccc(N4CCNCC4)cn3)nc2n(C2CCCC2)c1=O [Palbociclib] (first compound max 10 µM, 7x7, partner max 10 µM) | -0.0259 | -0.0497 | -0.018 | 0.0152 | 0.0906 | -0.0632 | -0.0387 | -0.0624 | 0.0256 | 0.008 | -0.03 | 0.0408 | 0.0022 | -0.0803 | -0.055 | -0.0486 | -0.0603 | 0.0478 | -0.0217 | -0.0375
COc1cccc(OCCCN)c1-c1cc(Nc2cnc(C#N)cn2)n[nH]1 [Prexasertib] + CN(C)CCCOc1ccc(-c2ccc3ncc4c(c3c2)n(C2CCOCC2)c(=O)n4C)cn1 [AZD0156] (first compound max 1 µM, 7x7, partner max 1 µM) | -0.0256 | -0.0079 | 0.0215 | 0.0607 | -0.0196 | -0.0211 | -0.035 | -0.0219 | -0.0645 | -0.0245 | -0.0009 | -0.0038 | 0.0171 | -0.0478 | 0.0592 | -0.0339 | -0.0141 | -0.049 | 0.0128 | -0.0265
Cc1cc2ncnn2cc1Nc1ncc2c(n1)n(C1CCOCC1)c(=O)n2C [AZD7648] + C=CCn1c(=O)c2cnc(Nc3ccc(N4CCN(C)CC4)cc3)nc2n1-c1cccc(C(C)(C)O)n1 [AZD1775] (first compound max 10 µM, partner max 1 µM) | -0.0112 | 0.0089 | -0.0431 | -0.055 | -0.0357 | -0.002 | -0.0067 | -0.0406 | -0.0887 | -0.0363 | -0.0228 | -0.0577 | -0.06 | 0.0089 | 0.0296 | 0.0049 | -0.145 | -0.0191 | -0.027 | -0.0395
NC1(C(=O)N[C@@H](CCO)c2ccc(Cl)cc2)CCN(c2ncnc3[nH]ccc23)CC1 [Capivasertib] + Cn1cnc2c(F)c(Nc3ccc(Br)cc3Cl)c(C(=O)NOCCO)cc21 [Selumetinib] (first compound max 10 µM, 7x7, partner max 10 µM) | -0.0297 | 0.0042 | -0.0427 | 0.0387 | 0.2 | 0.0018 | 0.0437 | 0.0212 | -0.0478 | 0.0101 | 0.0534 | -0.0255 | -0.005 | 0.0373 | -0.0651 | -0.0225 | 0.032 | 0.0269 | 0.0221 | 0.0402
CC(=O)c1c(C)c2cnc(Nc3ccc(N4CCNCC4)cn3)nc2n(C2CCCC2)c1=O [Palbociclib] + Cc1c2c(nn1C)CSCc1cc(n(C)n1)CSc1cc(c3ccccc3c1)OCCCc1c(C(=O)O)n(C)c3c-2c(Cl)ccc13 [AZD5991] (first compound max 10 µM, 7x7, partner max 1 µM) | -0.126 | -0.102 | -0.069 | 0.0011 | -0.0383 | -0.0111 | -0.057 | -0.0333 | -0.0556 | -0.0562 | 0.0062 | -0.0111 | -0.0213 | -0.0557 | 0.0193 | -0.0637 | -0.0194 | -0.0199 | -0.0395 | -0.0134
COc1nnc2ccc(N3CCC(c4ccc(OCCN5CCN(C)C(=O)[C@H]5C)cc4)CC3)nn12 [AZD5153] + Cc1c2c(nn1C)CSCc1cc(n(C)n1)CSc1cc(c3ccccc3c1)OCCCc1c(C(=O)O)n(C)c3c-2c(Cl)ccc13 [AZD5991] (first compound max 1 µM, 7x7, partner max 1 µM) | -0.0366 | -0.0513 | -0.0569 | -0.0709 | 0.0135 | -0.0031 | 0.0175 | -0.0473 | -0.0635 | -0.086 | 0.0153 | -0.0263 | -0.0621 | -0.0692 | 0.0097 | -0.0273 | 0.0472 | -0.03 | -0.0929 | -0.0303
CCN(CCO)CCCOc1ccc2c(Nc3cc(CC(=O)Nc4cccc(F)c4)[nH]n3)ncnc2c1 [AZD2811] + O=C(c1cc(Cc2n[nH]c(=O)c3ccccc23)ccc1F)N1CCN(C(=O)C2CC2)CC1 [Olaparib] (first compound max 1 µM, 7x7, partner max 10 µM) | 0.0347 | -0.0218 | -0.0785 | -0.0009 | 0.0203 | -0.0102 | -0.0223 | 0.0174 | -0.0434 | 0.0076 | -0.0882 | -0.0206 | 0.0285 | 0.0029 | 0.0105 | 0.0434 | -0.0482 | -0.187 | -0.0107 | -0.015
Cc1nc(Nc2ncc(C(=O)Nc3c(C)cccc3Cl)s2)cc(N2CCN(CCO)CC2)n1 [Dasatinib] + CC(=O)Nc1cccc(-n2c(=O)n(C3CC3)c(=O)c3c(Nc4ccc(I)cc4F)n(C)c(=O)c(C)c32)c1 [Trametinib] (first compound max 2 µM, 7x7, partner max 1 µM) | -0.0972 | 0.121 | -0.0254 | 0.0847 | -0.0706 | 0.0328 | -0.0025 | -0.0004 | -0.0069 | 0.0225 | 0.112 | 0.0121 | -0.0421 | 0.0011 | -0.073 | -0.0177 | -0.0292 | 0.0745 | 0.162 | -0.0015
